From paper PMC10319809, “Chronic UCN2 treatment desensitizes CRHR2 and improves insulin sensitivity” (Nature Communications, 2023)
Where no end group is shown, it is not given here.

What was measured:
[1] = target: T1, HA-tagged CRHR2a (Homo sapiens, UniProt Q13324); assay: CRHR2 surface expression / internalization, confocal imaging of HEK293 cells with HA-tagged CRHR2a; format: cell-based; conditions: 100 nM UCN2, HEK cells with HA-tagged CRHR2a; n = 4
T1 construct: expressed in transfected cells; host or cells: HEK293 cells, transient transfection with pcDNA3.1(+) plasmid using Lipofectamine 3000
T1 sequence (Q13324 1-411): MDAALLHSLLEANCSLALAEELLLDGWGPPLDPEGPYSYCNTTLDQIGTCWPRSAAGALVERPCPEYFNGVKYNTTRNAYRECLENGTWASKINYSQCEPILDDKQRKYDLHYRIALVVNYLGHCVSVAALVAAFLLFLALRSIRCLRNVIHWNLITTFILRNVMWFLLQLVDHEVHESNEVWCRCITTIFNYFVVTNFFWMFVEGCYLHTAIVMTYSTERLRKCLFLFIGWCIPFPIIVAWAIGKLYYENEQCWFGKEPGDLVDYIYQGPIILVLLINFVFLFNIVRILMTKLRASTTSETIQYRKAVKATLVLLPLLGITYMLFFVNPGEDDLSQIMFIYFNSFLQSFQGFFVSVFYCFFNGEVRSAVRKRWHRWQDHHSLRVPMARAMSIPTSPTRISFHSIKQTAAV
Method: β-Arrestin recruitment can sometimes cause the internalization of the receptor to which it is recruited. To assess whether CRHR2 is internalized following UCN2 treatment, we quantified CRHR2 receptor surface expression using confocal imaging of HEK cells transiently transfected with a plasmid expressing a […] CRHR2a construct (Fig. S3). Cells were treated with saline or 100 nM (−7.0 log[M]) UCN2 and surface expression was determined by fluorescent anti-HA antibody-binding, with and without permeabilizing the cell.
HEK293 cells were plated at a density of 10,000 cells per well into tissue culture-treated clear bottomed, optical microscopy quality, 96 well plates (Perkin Elmer, PhenoPlate 96-well) and grown for 1 day to ~40–60% confluency. Twenty-four hours after plating, cells were transfected with 50 ng of pcDNA3.1(+) plasmid encoding a N-terminally tagged CRHR2α construct using Lipofectamine 3000 (Thermofisher) following manufacturing protocols. Twenty-four hours following transfection, agonists were then added for 30 min and cells were incubated at 37 °C. Prior to imaging, cells were washed once with PBS and fixed with ice-cold 4% paraformaldehyde in PBS for 15 min. After washing 3 times with PBS, cells were kept in the Alexa Fluor 647 anti-HA (1:2000 dilution, BioLegend cat# 682404) diluted in 5% normal goat serum in PBS. […]

[2] = target: T2, hCRHR2α Gq (Homo sapiens, UniProt Q13324); assay: ebBRET EMTA, Gq biosensor; format: cell-based; conditions: HEK293 cells, CRHR2a, n = 2 independent experiments
T2 construct: expressed in transfected cells; host or cells: HEK293 cells (Millipore Sigma), transient PEI co-transfection with biosensor plasmids at Domain Therapeutics
T2 sequence (Q13324 1-411): T1 sequence (Q13324 1-411)
Method: Typically, GPCR desensitization is carried out through the recruitment of β-Arrestins or alternative G-proteins to the receptor. To identify whether these proteins are recruited to CRHR2 in response to UCN2, enhanced bystander bioluminescence resonance energy transfer (ebBRET)-based effector membrane translocation assays (EMTA) were carried out in HEK293 cells[28],[29]. Cells were co-transfected with plasmids expressing unmodified CRHR2a (alpha isoform) and one of various pathway-specific biosensors. […]
Effector membrane translocation biosensor assays (bioSensAll®) were conducted at Domain Therapeutics NA Inc. (Montreal, QC, Canada) and described in cells[28],[29]. […] Briefly, DNA and PEI were diluted separately in 150 mM NaCl, mixed and then incubated for at least 20 min at room temperature (note: salmon sperm DNA (Invitrogen) was used to adjust the total amount of DNA transfected to a final quantity of 1 ug per mL of cell culture to be transfected). During the 20-minute incubation, HEK293 cells were detached, counted and resuspended into cell culture medium to a final density of 350,000 cells per mL. […] Cells were then incubated at room temperature for 10 min and BRET readings subsequently collected with a 0.4 s integration time on a Synergy NEO plate reader (BioTek Instruments, Inc., USA; filters: 400 nm/70 nm, 515 nm/20 nm). […]

With “IVLSLDVPIGLLQILLEQARARAAREQATTNARILARVGHC-NH2 (C-terminus assumed) [UCN2, Urocortin 2]” as the substance, how does the “CRHR2 internalization / surface receptor expression” value [1] read?
The value was “increase of CRHR2 internalization and decreased surface receptor expression”.

And the Gq recruitment [2]?
The Gq recruitment was “not recruited”.
